Values of other authors, collected in patent US20220016310A1, “ANTIMICROBIAL SHAPE MEMORY POLYMERS” (THE TEXAS A&M UNIVERSITY SYSTEM, priority 2016, published 2022).

Tested on: antibiotic-resistant bacteria (Enterobacter aerogenes, Escherichia coli, and Staphylococcus aureus)
Conditions: bacteria obtained from hospitals

In the case of `O=C(O)C=Cc1ccccc1` [cinnamic acid], the “Susceptibility of antibiotic-resistant bacteria” value is given as “susceptible”.
